The supplement of paper PMC13380429

Key:
Calu-3 [1] = assay: drug sensitivity score (DSS) for viability; higher = more toxic; extreme values may be limits of the assay; conditions: 72 h
Vero E6 [2] = assay: as above; conditions: 72 h
U2OS [3] = assay: as above; conditions: 72 h
Caco-2 [4] = assay: as above; conditions: 72 h
HepG2 [5] = assay: as above; conditions: 72 h
Calu-3 [6] = assay: relative viability EC50 (midpoint between 100% and the lowest measured viability); higher = less toxic; conditions: 72 h
Vero E6 [7] = assay: as above; conditions: 72 h
U2OS [8] = assay: as above; conditions: 72 h
Caco-2 [9] = assay: as above; conditions: 72 h
HepG2 [10] = assay: as above; conditions: 72 h
[11] = system: A549-ACE2 infected with SARS-CoV-2; assay: morphology score (similarity to uninfected cells); higher = more like uninfected cells; conditions: 24 h
Calu-3 [12] = assay: cell viability relative to DMSO; higher = less toxic; conditions: 72 h
Vero E6 [13] = assay: as above; conditions: 72 h
U2OS [14] = assay: as above; conditions: 72 h
Caco-2 [15] = assay: as above; conditions: 72 h
HepG2 [16] = assay: as above; conditions: 72 h
A549-ACE2 [17] = assay: drug-induced phospholipidosis relative to tamoxifen; higher = more phospholipidosis
[18] = system: A549-ACE2 infected with SARS-CoV-2; assay: cell count relative to DMSO; higher = less toxic; conditions: 24 h
[19] = system: A549-ACE2 infected with SARS-CoV-2; assay: SARS-CoV-2 infection rate relative to DMSO; higher = more infection; conditions: 24 h
A549-ACE2 [20] = assay: phospholipidosis EC50; higher = less potent phospholipidosis inducer

COc1cc(NC(C)CCCN)c2ncccc2c1 (stereo not drawn) [primaquine]
drug sensitivity score (Calu-3 [1]): 0.8 | drug sensitivity score (Vero E6 [2]): 0 | drug sensitivity score (U2OS [3]): 0 | drug sensitivity score (Caco-2 [4]): 4 | drug sensitivity score (HepG2 [5]): 0.3 | relative viability EC50 (Calu-3 [6]): > 10 µM | relative viability EC50 (Vero E6 [7]): > 10 µM | relative viability EC50 (U2OS [8]): > 10 µM | relative viability EC50 (Caco-2 [9]): 2.25 µM | relative viability EC50 (HepG2 [10]): > 10 µM | morphology score ([11]; 0.3 µM): -0.01 | cell viability (Calu-3 [12]; 1 nM): 104% | cell viability (Calu-3 [12]; 10 nM): 90.7% | cell viability (Calu-3 [12]; 100 nM): 106% | cell viability (Calu-3 [12]; 1000 nM): 100% | cell viability (Calu-3 [12]; 10000 nM): 76.9% | cell viability (Vero E6 [13]; 1 nM): 108% | cell viability (Vero E6 [13]; 10 nM): 105% | cell viability (Vero E6 [13]; 100 nM): 99.7% | cell viability (Vero E6 [13]; 1000 nM): 102% | cell viability (Vero E6 [13]; 10000 nM): 89.9% | cell viability (U2OS [14]; 1 nM): 103% | cell viability (U2OS [14]; 10 nM): 102% | cell viability (U2OS [14]; 100 nM): 102% | cell viability (U2OS [14]; 1000 nM): 101% | cell viability (U2OS [14]; 10000 nM): 88.9% | cell viability (Caco-2 [15]; 1 nM): 103% | cell viability (Caco-2 [15]; 10 nM): 108% | cell viability (Caco-2 [15]; 100 nM): 91.8% | cell viability (Caco-2 [15]; 1000 nM): 93.9% | cell viability (Caco-2 [15]; 10000 nM): 45.2% | cell viability (HepG2 [16]; 1 nM): 122% | cell viability (HepG2 [16]; 10 nM): 107% | cell viability (HepG2 [16]; 100 nM): 108% | cell viability (HepG2 [16]; 1000 nM): 110% | cell viability (HepG2 [16]; 10000 nM): 80.3% | drug-induced phospholipidosis (A549-ACE2 [17]; 0.3 µM, 24 h): 2.39% | drug-induced phospholipidosis (A549-ACE2 [17]; 0.3 µM, 48 h): 2.15% | drug-induced phospholipidosis (A549-ACE2 [17]; 0.3 µM, 72 h): 2.76% | cell count ([18]; 0.3 µM): 102% | SARS-CoV-2 infection rate ([19]; 0.3 µM): 97%

CCN(CC)CCNC(=O)c1c(C)[nH]c(/C=C2\C(=O)Nc3ccc(F)cc32)c1C [sunitinib]
phospholipidosis EC50 (A549-ACE2 [20]; 24 h): 4.75 µM | phospholipidosis EC50 (A549-ACE2 [20]; 48 h): 4.77 µM | phospholipidosis EC50 (A549-ACE2 [20]; 72 h): 3.32 µM | drug sensitivity score (Calu-3 [1]): 0.1 | drug sensitivity score (Vero E6 [2]): 4.1 | drug sensitivity score (U2OS [3]): 4 | drug sensitivity score (Caco-2 [4]): 5.7 | drug sensitivity score (HepG2 [5]): 9 | morphology score ([11]; 0.1 µM): 0.28 | morphology score ([11]; 0.3 µM): 0.35 | morphology score ([11]; 1 µM): 0.53 | morphology score ([11]; 3 µM): 0.51

COc1ccc2cc(-c3nc(-c4ccc([S+](C)[O-])cc4)[nH]c3-c3ccncc3)ccc2c1 (stereo not drawn) [tie2-kinase-inhibitor]
phospholipidosis EC50 (A549-ACE2 [20]; 24 h): 7.52 µM | phospholipidosis EC50 (A549-ACE2 [20]; 48 h): 6.68 µM | drug sensitivity score (Calu-3 [1]): 2.5 | drug sensitivity score (Vero E6 [2]): 0 | drug sensitivity score (U2OS [3]): 0.6 | drug sensitivity score (Caco-2 [4]): 0.1 | drug sensitivity score (HepG2 [5]): 1.2 | relative viability EC50 (Vero E6 [7]): > 10 µM | relative viability EC50 (U2OS [8]): > 10 µM | relative viability EC50 (Caco-2 [9]): > 10 µM | relative viability EC50 (HepG2 [10]): > 10 µM | morphology score ([11]; 0.3 µM): 0.15 | morphology score ([11]; 3 µM): 0.39 | morphology score ([11]; 10 µM): 0.69 | morphology score ([11]; 30 µM): 0.58 | cell viability (Calu-3 [12]; 1 nM): 104% | cell viability (Calu-3 [12]; 10 nM): 103% | cell viability (Calu-3 [12]; 100 nM): 101% | cell viability (Calu-3 [12]; 1000 nM): 98.1% | cell viability (Calu-3 [12]; 10000 nM): 56.7% | cell viability (Vero E6 [13]; 1 nM): 102% | cell viability (Vero E6 [13]; 10 nM): 102% | cell viability (Vero E6 [13]; 100 nM): 97.1% | cell viability (Vero E6 [13]; 1000 nM): 104% | cell viability (Vero E6 [13]; 10000 nM): 98.9% | cell viability (U2OS [14]; 1 nM): 104% | cell viability (U2OS [14]; 10 nM): 97.3% | cell viability (U2OS [14]; 100 nM): 106% | cell viability (U2OS [14]; 1000 nM): 96.5% | cell viability (U2OS [14]; 10000 nM): 84.6% | cell viability (Caco-2 [15]; 1 nM): 104% | cell viability (Caco-2 [15]; 10 nM): 102% | cell viability (Caco-2 [15]; 100 nM): 108% | cell viability (Caco-2 [15]; 1000 nM): 89.6% | cell viability (Caco-2 [15]; 10000 nM): 97.4% | cell viability (HepG2 [16]; 1 nM): 109% | cell viability (HepG2 [16]; 10 nM): 103% | cell viability (HepG2 [16]; 100 nM): 98.6% | cell viability (HepG2 [16]; 1000 nM): 91.7% | cell viability (HepG2 [16]; 10000 nM): 79.9% | drug-induced phospholipidosis (A549-ACE2 [17]; 0.3 µM, 24 h): 3.67% | drug-induced phospholipidosis (A549-ACE2 [17]; 0.3 µM, 48 h): 4.58% | drug-induced phospholipidosis (A549-ACE2 [17]; 0.3 µM, 72 h): 3.91% | drug-induced phospholipidosis (A549-ACE2 [17]; 0.833333 µM, 24 h): 4.27% | drug-induced phospholipidosis (A549-ACE2 [17]; 0.833333 µM, 48 h): 3.03% | drug-induced phospholipidosis (A549-ACE2 [17]; 0.833333 µM, 72 h): -0.14% | drug-induced phospholipidosis (A549-ACE2 [17]; 3.33333 µM, 24 h): 13.4% | drug-induced phospholipidosis (A549-ACE2 [17]; 3.33333 µM, 48 h): 14.7% | drug-induced phospholipidosis (A549-ACE2 [17]; 3.33333 µM, 72 h): 11.2% | drug-induced phospholipidosis (A549-ACE2 [17]; 6.66667 µM, 24 h): 35.8% | drug-induced phospholipidosis (A549-ACE2 [17]; 6.66667 µM, 48 h): 33.7% | drug-induced phospholipidosis (A549-ACE2 [17]; 6.66667 µM, 72 h): 35.7% | drug-induced phospholipidosis (A549-ACE2 [17]; 10 µM, 24 h): 68% | drug-induced phospholipidosis (A549-ACE2 [17]; 10 µM, 48 h): 65% | drug-induced phospholipidosis (A549-ACE2 [17]; 10 µM, 72 h): 69.8% | drug-induced phospholipidosis (A549-ACE2 [17]; 30 µM, 24 h): 86.8% | drug-induced phospholipidosis (A549-ACE2 [17]; 30 µM, 48 h): 56.9% | cell count ([18]; 0.3 µM): 101% | cell count ([18]; 3 µM): 114% | cell count ([18]; 10 µM): 122% | cell count ([18]; 30 µM): 112% | SARS-CoV-2 infection rate ([19]; 0.3 µM): 98% | SARS-CoV-2 infection rate ([19]; 3 µM): 87% | SARS-CoV-2 infection rate ([19]; 10 µM): 43% | SARS-CoV-2 infection rate ([19]; 30 µM): 59%
